# Experimental data: US20200155567A1, “TREATMENT OF CANCERS USING A COMBINATION COMPRISING PARP INHIBITORS, TEMOZOLOMIDE AND/OR RADIATION THERAPY” (BEIGENE, LTD., priority 2017, published 2020)
# Columns and labels:
# [1] = system: PARP1/2; conditions: disclosed in WO2013/097225A1; cited from earlier work
# [2] = system: tumor cell lines with defects of the HR pathway; assay: in vitro activity against tumor cell lines with defects of the HR pathway; assay type: cell-based
# Source text: (§1) Inhibition of PARylation in the tumor tissues correlated well with tumor drug concentrations of Compound B.
# [3] = system: PARylation; assay: PK/PD study, PARylation in MDA-MB-436 breast cancer xenografts; assay type: in vivo, mice; conditions: oral administration
# Source text: as §1
# [4] = system: H209-T small cell lung cancer xenografts; assay: H209-T intracranial tumor model; assay type: in vivo, nude mice; conditions: single agent, 2.73 mg/kg BID
# Source text: H209-T is a TMZ-resistant cell line generated by treating H209-xenografted tumors with multiple cycles of TMZ in vivo.
# [5] = system: newly diagnosed or recurrent/refractory glioblastoma (GBM); assay: dose-escalation/expansion study of Compound B with RT and/or TMZ in GBM (Example 5); assay type: in vivo, human; conditions: across study arms, 15 patients
# Description: This ongoing dose-escalation/expansion study was designed to determine the safety/tolerability and antitumor effects of Compound B (60 mg PO BID) in combination with RT and/or TMZ. The dose-escalation component consists of 3 arms:
# (Arm A) Compound B (60 mg BID) at increasing exposures of 2, 4, or 6 weeks in combination with RT for 6 to 7 weeks, in newly diagnosed patients with GBM with unmethylated MGMT promoter (‘unmethylated GBM’)), and after RT is completed, subjects will receive no further study treatment;
# (Arm B) Depending on the safety of the Arm A combination, Compound B in combination with RT for 6 to 7 weeks and increasing TMZ doses, in newly diagnosed patients with unmethylated GBM, and after RT is completed, subjects will receive no further study treatment;
# (Arm C) Compound B in combination with increasing dose of TMZ administered on Days 1 to 21 of each 28-day cycle, in patients with recurrent/refractory methylated or unmethylated GBM.
# In Arm A, Arm B and Arm C: Compound B was administered at the doses of 60 mg BID (PO); Radiation therapy (RT) was administered QD×5 days/week for 6 to 7 weeks with 1.8 to 2 Gy/fraction for a total dose of up to 60 Gy; flat-dosing was used for TMZ, and the first dose level of 40 mg QD corresponds to 23 mg/m^2 assuming an average body surface area of 1.73 m^2. […]
# [6] = system: H209 small cell lung cancer xenograft; conditions: single agent, 2.73 mg/kg BID x 21 days
# [7] = system: locally advanced or metastatic solid tumors; assay type: in vivo
# Description: This dose-escalation/expansion study is enrolling pts using a modified 3+3 design to establish the safety and MTD of Compound B plus TMZ. During dose escalation, pts receive Compound B plus escalating doses of TMZ QD on Days 1-7 (Arm A) or continuously (Arm B) of each 28-day cycle. In Arm A and Arm B: Compound B was administered at the doses of 60 mg PO BID; TMZ was administered at 20 mg, 40 mg, 80 mg, 120 mg QD corresponds to 12 mg/m^2, 23 mg/m^2, 46 mg/m^2and 69 mg/m^2assuming an average body surface area of 1.73 m^2, respectively will be administered PO QD.
# The primary endpoint is safety/tolerability, including estimation of MTD and RP2D. Key secondary endpoints are PK profiles of TMZ and Compound B and antitumor activity (RECIST v1.1) of combination treatment; biomarker (eg, gBRCA) assessment is exploratory.
# [8] = brain penetrance; conditions: in vivo
# [9] = system: MDA-MB-436 breast cancer; assay: BRCA1-mutant mouse xenograft model (MDA-MB-436 breast cancer); assay type: in vivo
# Source text: as §1
# [10] = system: non-BRCA1/2-mutated cancers; conditions: cited from earlier work
smiles,measurement,setting,value
"C[C@]12CCCN1CC1=NNC(=O)c3cc(F)cc4[nH]c2c1c34 [Compound A, (R)-2-fluoro-10a-methyl-7,8,9,10,10a,11-hexahydro-5,6,7a,11-tetraazacyclohepta[def]cyclopenta[a]fluoren-4(5H)-one]",PARP1/2 inhibitory activities,[1],highly selective and potent
"C[C@]12CCCN1CC1=NNC(=O)c3cc(F)cc4[nH]c2c1c34 [Compound B, (R)-2-fluoro-10a-methyl-7,8,9,10,10a,11-hexahydro-5,6,7a,11-tetraazacyclohepta[def]cyclopenta[a]fluoren-4(5H)-one sesqui-hydrate]",in vitro activity as a single agent,[2],excellent in vitro activity
same,inhibition of PARylation in xenografts,[3],time- and dose-dependent inhibition of PARylation
same,effect on tumor growth,[4],no significant effect on tumor growth
same,Compound B-related AE fatigue (n patients),[5],5
same,Compound B-related AE nausea (n patients),[5],6
same,effect on tumor growth,[6],no significant effect on tumor growth
same,most common drug-related AE: nausea (n pts),"[7]; 16 pts, Compound B 60 mg BID plus TMZ 20-120 mg QD",6
same,plasma exposure,[7]; in combination,consistent with single-agent trials
same,brain penetrance,[8],significant brain penetrance
same,potency relative to olaparib,[9]; more potent than olaparib,16 fold
same,anti-tumor activity,[9]; single agent,strong anti-tumor activity
"Cn1nnc2c(C(N)=O)ncn2c1=O [TMZ, temozolomide]","MTD, TMZ",[10]; with 1 mg talazoparib,37 mg/m^2
same,most common drug-related AE: thrombocytopenia (n pts),"[7]; human, in vivo",5
Cn1ncnc1[C@H]1c2n[nH]c(=O)c3cc(F)cc(c23)N[C@@H]1c1ccc(F)cc1 [talazoparib],"MTD, talazoparib",[10]; plus 37 mg/m^2 of TMZ,1 mg
